Test results published in patent publication US20070111981A1, “New (hetero)aryl compounds with MCH antagonistic activity and medicaments comprising these compounds” (priority 2005, published 2007).

Target: T1, hMCH-1R (Homo sapiens, UniProt Q99705)
T1 construct: expressed in transfected cells
Assay: MCH-1 receptor binding test (125I-MCH binding to membranes of hMCH-1R transfected CHO/Galpha16 cells)
Details: displacement of 125I-MCH, hMCH-1R CHO/Galpha16 membranes
Procedure: MCH-1 Receptor Binding Test
Method: MCH binding to hMCH-1R transfected cells
Test cell: hMCH-1R stably transfected into CHO/Galphal 6 cells
Membranes from CHO/Galphal6 cells stably transfected with human hMCH-1R are resuspended using a syringe (needle 0.6×25 mm) and diluted in test buffer (50 mM HEPES, 10 mM MgCl2, 2 mM EGTA, pH 7.00; 0.1% bovine serum albumin (protease-free), 0.021% bacitracin, 1 μg/ml aprotinin, 1 μg/ml leupeptin and 1 μM phosphoramidone) to a concentration of 5 to 15 μg/ml.
After the incubation the reaction is filtered using a cell harvester through 0.5% PEI treated fibreglass filters (GF/B, Unifilter Packard). The membrane-bound radioactivity retained on the filter is then determined after the addition of scintillator substance (Packard Microscint 20) in a measuring device (TopCount of Packard).
The non-specific binding is defined as bound radioactivity in the presence of 1 micromolar MCH during the incubation period.
The analysis of the concentration binding curve is carried out on the assumption of one receptor binding site.

T1 sequence (Q99705 whole entry): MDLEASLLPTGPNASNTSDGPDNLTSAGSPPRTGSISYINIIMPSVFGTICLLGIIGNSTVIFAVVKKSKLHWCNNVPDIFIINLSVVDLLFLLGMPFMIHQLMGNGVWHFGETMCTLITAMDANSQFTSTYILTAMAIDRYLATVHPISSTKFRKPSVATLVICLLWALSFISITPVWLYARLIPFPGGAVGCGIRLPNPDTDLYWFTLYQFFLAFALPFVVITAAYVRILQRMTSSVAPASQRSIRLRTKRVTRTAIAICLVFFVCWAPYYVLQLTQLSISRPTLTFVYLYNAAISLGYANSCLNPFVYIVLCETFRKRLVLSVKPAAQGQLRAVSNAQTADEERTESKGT

Row | IC50 [nM] | SMILES
1 | 79 | COc1ccc(-c2ccc(CCCNc3ccc(CN4CCC(NC(C)=O)C4)cc3)nn2)cc1 (centres unmarked) [Example 3.30, N-[1-(4-{3-[6-(4-Methoxy-phenyl)-pyridazin-3-yl]-propylamino}-benzyl)-pyrrolidin-3-yl]-acetamide]
2 | 174 | COc1ccc(-c2ccc(NCCCc3ccc(CN4CCC(O)CC4)cc3)nn2)cc1 [Example 9.1, 1-(4-{3-[6-(4-Methoxy-phenyl)-pyridazin-3-ylamino]-propyl}-benzyl)-piperidin-4-ol]
3 | 172 | CCN(CC)CCOc1ccc(OCCOc2ccc(I)cc2Cl)cc1Cl [Example 12.1, (2-{2-Chloro-4-[2-(2-chloro-4-iodo-phenoxy)-ethoxy]-phenoxy}-ethyl)-diethyl-amine]

Tested on: not given
Assay: not given
Details: not given

Row | melting point [°C] | SMILES
4 | 69 to 71 | CC1CCN(Cc2ccc(NCCCc3ccc(-c4ccc(Cl)cc4)cc3)cc2)CC1 [Example 1.1, [3-(4′-Chloro-biphenyl-4-yl)-propyl]-[4-(4-methyl-piperidin-1-ylmethyl)-phenyl]-amine]
5 | 85 to 90 | CN(C)Cc1ccc(NCCCc2ccc(-c3ccc(Cl)cc3)cc2)cc1 [Example 4.1, [3-(4′-Chloro-biphenyl-4-yl)-propyl]-(4-dimethylaminomethyl-phenyl)-amine]
6 | 170 to 172 | OC1(C(F)(F)F)CCN(Cc2ccc(NCCCc3ccc(-c4ccc(Cl)cc4)cc3)nc2)CC1 [Example 5.1]
7 | 130 to 133 | COc1ccc(-c2ccc(CCCNc3ccc4c(c3)CN(C)CC4)nn2)cc1 [Example 19.1, {3-[6-(4-Methoxy-phenyl)-pyridazin-3-yl]-propyl}-(2-methyl-1,2,3,4-tetrahydro-isoquinolin-7-yl)-amine]
8 | 200 to 204 | Oc1ccc(-c2ccc(CCCNc3ccc(CN4CCC(O)(C(F)(F)F)CC4)cc3)nn2)cc1 [Example 21.1]
